{
  "source": "patent US7161064B2",
  "about": "“Method for producing stably transformed duckweed using microprojectile bombardment” (North Carolina State University, priority 1997, dated 2007)",
  "key": {"[1]": {"tested_on": "L. minor callus cultures, strain 8744 and strain 8627", "assay": "Frond regeneration from L. minor callus cultures", "assay_type": "cell-based, Lemna minor", "conditions": "8 weeks", "procedure": "The effect of medium composition on frond regeneration from L. minor callus cultures was also tested. Seven media formulations were tested: (1) water agar, (2) water agar with 100 μM adenine sulfate, (3) water agar with 10 μM BA, (4) water agar with 10 μM BA and 1 μM IBA, (5) half-strength SH, (6) half-strength SH with 10 μM BA, and (7) half-strength SH with 10 μM BA and 1 μM IBA. […] Callus was incubated on the seven different media for 8 weeks, with continual observation for the development of fronds."}, "[2]": {"tested_on": "L. minor strains 8744 and 8627", "assay": "Callus induction from Lemna minor fronds, auxin and cytokinin type and concentration", "assay_type": "cell-based", "conditions": "MS medium, 6 weeks", "procedure": "In the auxin type and concentration experiment, four auxins: 2,4-D, NAA, IBA and dicamba were tested, each at four concentrations: 2, 5, 10 and 20 μM, for their ability to induce callus formation from L. minor strains 8744 and 8627. The basal medium used was MS and media and experimental protocol was basically that followed in Example 10. Fronds used in this experiment were grown for 2 weeks prior to plating on callus induction medium under 3 different culture conditions: 1) SH medium without plant growth regulators, 2) F medium with 24 μM 2,4-D and 2 μM 2-iP, and 3) SH medium with 24 μM 2,4-D and 2 μM 2-iP. Fronds were separated, the roots cut off and then plated on induction medium. The fronds were incubated under conditions given in Example 8 for 6 weeks at which time cultures were evaluated for the presence or absence of callus induction, the degree to which the callus proliferated, and the basic morphology of the callus present.\nIn the cytokinin type and concentration experiment, four cytokinins: BA, kinetin, 2-iP, and thidiazuron were tested, each at five concentrations: 0.05, 0.1, 0.5, 1 and 5 μM, for their ability to induce callus formation from L. minor strains 8744 and 8627. The basal medium used was MS and the media and experimental protocol were basically as described in Example 11. Fronds used in this experiment were grown for 2 weeks prior to plating on callus induction medium under 3 different culture conditions: 1) SH medium without plant growth regulators, 2) F medium with 24 μM 2,4-D and 2 μM 2-iP, and 3) SH medium with 24 μM 2,4-D and 2 μM 2-iP. Fronds were separated, the roots cut off and then plated on induction medium. The fronds were incubated under conditions given in Example 8 for 6 weeks at which time cultures were evaluated for the presence or absence of callus induction, the degree to which the callus proliferated, and the basic morphology of the callus."}, "[3]": {"tested_on": "Lemna gibba G3", "assay": "GUS expression in fronds after co-cultivation with Agrobacterium tumefaciens AT656 (histochemical staining)", "assay_type": "cell-based", "procedure": "Duckweed fronds were grown on liquid Schenk and Hildebrandt medium containing 1% sucrose with and without 10 μM indoleacetic acid (IAA), a concentration sufficient to increase proliferation rate. Fronds were grown in 25 ml aliquots of medium in 125 ml flasks, at 23° C. under a 16 hr light/8 hr dark photoperiod with light intensity of approximately 40 μmol/m^2·sec. For co-cultivation, 500 ml of Schenk and Hildebrandt medium containing 1% sucrose, 0.8% agar, 20 mg/L acetosyringone, and with and without 10 μM indoleacetic acid was prepared, pH adjusted to 5.6, autoclaved at 121° C. for 30 minutes, and cooled. Filter-sterilized solutions of acetosyringone, and acetosyringone and indoleacetic acid were added to the cooled medium, to the final, appropriate concentrations. Twenty, 100 mm×15 mm petri dishes were poured from the cooled medium.\nA randomized block, experimental design with 2 bacterial strain treatments×2 frond growth media, with 5 replications, with one petri dish per replication, and 20 fronds per petri dish was used. For inoculation, bacteria of each strain were separately resuspended as described in Example 21. For inoculation, individual fronds were separated from clumps, each turned abaxial side up and wounded with a sterile scalpel in the meristematic regions, then transferred to bacterial suspensions of either AT656 or EHA101pJR1, and incubated for 10–15 minutes. For co-cultivation, fronds were transferred to solid Schenk and Hildebrandt medium with 1% sucrose, 0.8% agar and 100 μM acetosyringone with and without 10 μM indoleacetic acid as described above, abaxial side down.\nThe fronds were co-cultivated for 4 days at 23° C. under a 16 hr light/8 hr dark photoperiod with light intensity of approximately 40 μmol/m^2·sec. The fronds from two plates from each of the four treatments were stained for GUS expression.\nLemna gibba G3 fronds were grown for two weeks on liquid. Schenk and Hildebrandt medium containing 1% sucrose and with or without 10 μM indoleacetic acid in 25 ml aliquots in 125 ml flasks, at 23° C. under a 16 hr light/8 hr dark photoperiod with light intensity of approximately 40 μmol/m^2·sec prior to experimentation. For co-cultivation, 900 ml of Schenk and Hildebrandt medium containing 1% sucrose, 0.8% agar, with and without 10 μM indoleacetic acid, and 20 mg/L acetosyringone was prepared, the pH was adjusted to 5.6, the medium autoclaved at 121° C. for 30 minutes, and cooled. Filter-sterilized solutions of acetosyringone and indoleacetic acid were added to the appropriate, final medium concentrations. Thirty-six, 100 mm×15 mm petri dishes were poured from the cooled medium. Three bacterial media: 1) AB minimal containing 1.6% agar (AB), Difco potato dextrose medium with 1.6% agar (PDA), and mannitol glutamine (Roberts and Kerr, Physiol. […]"}, "[4]": {"tested_on": "Lemna gibba G3", "assay": "Callus induction from Lemna gibba G3 fronds on solid medium with plant growth regulators", "assay_type": "cell-based", "procedure": "Duckweed fronds were grown in liquid Hoagland's medium (Hoagland and Snyder, Proc. Amer. Soc. Hort. Sci. 30, 288 (1933)) containing 3% sucrose for two weeks at 23° C. under a 16 hr light/8 hr dark photoperiod with light intensity of approximately 40 μmol/m^2·sec prior to experimentation. For callus induction, eighteen, 100 ml portions of Murashige and Skoog basal medium (Murashige and Skoog, Physiol. Plant. 15, 473 (1962)) containing 3% sucrose, 0.15% Gelrite and 0.4% Difco Bacto-agar were prepared with 2,4-D concentrations of 10, 20 and 50 μM and BA concentrations of 0, 0.01, 0.1, 1.0, 2.0, and 10.0 μM. All media were pH adjusted to 5.8, autoclaved at 121° C. for 20 minutes, cooled, and each 100 ml was poured into 4, 100 mm×15 mm petri dishes.\n(§1) A three 2,4-D concentrations×six BA concentrations, full-factorial experimental design (18 treatments in total) with four replications, with one petri dish per replication and 5 fronds per petri dish was used. For callus induction, 5 individual duckweed fronds were placed abaxial side down on each plate of medium. The 72 plates were incubated at 23° C., for 27 days under a 16 hr light/8 hr dark photoperiod with light intensity of approximately 40 μmol/m^2·sec. After 27 days the duckweed tissue was transferred to fresh media of the same type and incubation was continued another 35 days under the same temperature and light culturing conditions.\nDuckweed fronds were grown in liquid Hoagland's medium containing 3% sucrose for two weeks at 23° C. under a 16 hr light/8 hr dark photoperiod with light intensity of approximately 40 μmol/m^2·sec. prior to experimentation. For callus induction, forty 100 ml portions of Murashige and Skoog medium with 3% sucrose, 0.15% Gelrite, and 0.4% Difco Bacto-agar were prepared with dicamba concentrations of 10, 20, 30, 40, 50, 60, 80, 100 μM and BA concentrations of 0.01, 0.05, 0.1, 0.5, and 1.0 μM. All media were pH adjusted to 5.8, autoclaved at 121° C. for 20 minutes, cooled, and each 100 ml was poured into 4, 100 mm×15 mm petri dishes.\nas §1, with “An eight dicamba concentrations×five BA” for “A three 2,4-D concentrations×six BA”, “design (40” for “design (18”, “The” for “The 72”, “After 28” for “After 27”, “another 45” for “another 35”\nDuckweed fronds were grown in liquid Schenk and Hildebrandt medium containing 1% sucrose for two weeks at 23° C. under a 16 hr light/8 hr dark photoperiod with light intensity of approximately 40 μmol/m^2·sec prior to experimentation. For callus induction, three basal media were tested: Murashige and Skoog, Schenk and Hildebrandt, and N6. Benzyladenine was used as the cytokinin at a concentration of 1 μM. The auxin concentrations varied with auxin type. For the relatively strong auxins, 2,4-D and dicamba, concentrations were 0, 1, 5, 10 and 20 μM. For weak auxins, NAA and IBA, the concentrations were 0, 5, 10, 20 and 50 μM. For each medium dose-response experiment, 2 liters of basal medium were prepared with BA and the pH adjusted to 5.8. The volume was aliquoted as 20, 100 ml portions. To each of these portions, the appropriate amount of auxin was added and the medium was adjusted to 0.15% Gelrite, and 0.4% Difco Bacto-agar. The media were autoclaved for 30 minutes at 121° C., cooled and 4, 100 mm×15 mm petri dishes were poured from each 100 ml portion.\nA 3 media×4 auxin×5 concentration combinations, 60 treatment, randomized dose-response experimental design was used. The design was replicated two times, with one petri dish per replication and 5 fronds per petri dish."}, "[5]": {"conditions": "half-strength SH with 10 μM BA only"}},
  "data": [
    {"smiles": "c1ccc(CNc2ncnc3nc[nH]c23)cc1", "note": "[BA, benzyladenine]", "values": [
      {"measurement": "callus growth compared with half-strength SH without plant growth regulators", "setting": "[1]; [5]", "value": "callus growth was faster"},
      {"measurement": "time to frond regeneration compared with half-strength SH", "setting": "[1]; [5]", "value": "regeneration took longer"},
      {"measurement": "callus induction", "setting": "[2]; inducing auxin at 2, 5, 10, 20 μM, strains 8744 and 8627", "value": "not observed"}
    ]},
    {"smiles": "O=C(O)Cc1c[nH]c2ccccc12", "note": "[IAA, indoleacetic acid]", "values": [
      {"measurement": "effect on frequency of GUS expression after co-cultivation", "setting": "[3]; fronds grown on 10 μM indoleacetic acid prior to inoculation, 4 days co-cultivation", "value": "increased the frequency of GUS expression"},
      {"measurement": "frequency of GUS expression in meristematic tissue", "setting": "[3]; fronds grown on SH medium with indoleacetic acid, averaged over PDA and MGL bacterial media", "value": "approximately 17%"},
      {"measurement": "co-cultivated fronds showing GUS expression", "setting": "[3]; medium containing 10 μM IAA, 4 days co-cultivation (20% without IAA)", "value": 48, "unit": "%"}
    ]},
    {"smiles": "O=C(O)CCCc1c[nH]c2ccccc12", "note": "[IBA, indolebutyric acid]", "values": [
      {"measurement": "effect on the timing or ability of callus to regenerate fronds", "setting": "[1]; 1 μM IBA added to medium with 10 μM BA", "value": "had no effect"}
    ]},
    {"smiles": "O=C(O)Cc1cccc2ccccc12", "note": "[NAA, naphthaleneacetic acid]", "values": [
      {"measurement": "concentration giving the greatest callus induction", "setting": "[4]; MS medium, 1 μM BA, five weeks", "value": 10, "unit": "µM"}
    ]},
    {"smiles": "O=C(Nc1ccccc1)Nc1cnns1", "note": "[TDZ, thidiazuron]", "values": [
      {"measurement": "frequency of callus induction", "setting": "[4]; cytokinin 0-5 μM with 20 μM 2,4-D, MS medium, five weeks", "value": "greatest frequency of callus induction"}
    ]},
    {"smiles": "COc1c(Cl)ccc(Cl)c1C(=O)O", "note": "[dicamba]", "values": [
      {"measurement": "compact Type I callus induction on MS medium", "setting": "[4]; auxin with 1 μM BA, five weeks", "value": "some degree of callus induction"},
      {"measurement": "compact Type I callus induction on N6 medium", "setting": "[4]; auxin with 1 μM BA, five weeks", "value": "produced callus"},
      {"measurement": "callus proliferation", "setting": "[4]; dicamba 10-100 μM with BA 0.01-1.0 μM, Murashige and Skoog medium, 73 days", "value": "callus proliferation was poor"},
      {"measurement": "concentration above which callus proliferation did not occur", "setting": "[4]; dicamba with BA 0.01-1.0 μM, Murashige and Skoog medium, 73 days", "value": "above 30 μM"},
      {"measurement": "concentration at which callus induction was observed", "setting": "[2]; strain 8744, auxin experiment", "value": 20, "unit": "µM"}
    ]},
    {"smiles": "OC[C@@H](O)[C@@H](O)[C@H](O)[C@H](O)CO", "note": "[mannitol]", "values": [
      {"measurement": "concentration in bacterial resuspension solution giving the highest frequencies of GUS expression", "setting": "[3]; 0, 0.2, 0.4, 0.6, 0.8 M tested, regardless of media, 4 days co-cultivation in the dark", "value": 0.6, "unit": "M"}
    ]}
  ]
}
